Measured values: patent US20120270237A9, “METHODS FOR THE IDENTIFICATION OF KINASE INTERACTING MOLECULES AND FOR THE PURIFICATION OF KINASE PROTEINS” (Cellzone AG, priority 2009, published 2012)

Assays:
BCR = BCR (Homo sapiens, UniProt P11274); assay: Kinobeads competition binding, L-363 cell lysate; design: capturing and identification of kinases from L-363 cell lysate; endogenous in cells; host or cells: L-363 (DSMZ ACC49), treated with MG132 before harvest; conditions: 10 μM free compound, L-363 lysate
Procedure: (§1) To one aliquot of cell lysate 10 μM of the free compound (FIG. 3, CZC31326) was added and allowed to bind to proteins in the lysate. Then the affinity matrix with the immobilized compound was added to capture proteins that were not interacting with the previously added free compound. Beads were separated from the lysate and bead bound proteins were eluted in SDS sample buffer and subsequently separated by SDS-Polyacrylamide gel electrophoresis (FIG. 8). Suitable gel bands were cut out and subjected to in-gel proteolytic digestion with trypsin. The second lysate aliquot was processed identically, however no free compound was added (DMSO solvent control). Peptides originating from samples 1 and 2 were labeled with iTRAQ reagents (iTRAQ 114 and iTRAQ 117) and the combined samples were analyzed with a nano-flow liquid chromatography system coupled online to a tandem mass spectrometer (LC-MS/MS) experiment followed by iTRAQ reporter ion quantification in the MS/MS spectra as described in Example 2.
(§2) For this experiment the human plasma cell leukaemia line L-363 was used (German Collection of Microorganisms and Cell Cultures, DSMZ number ACC49, Braunschweig, Germany). Cells were treated for three hours with 20 μM of the proteasome inhibitor MG132 (Z-Leu-Leu-Leu-al, Sigma C2211) prior to cell harvesting.

RIPK2 = RIPK2 (Homo sapiens, UniProt O43353); assay: Kinobeads competition binding, L-363 cell lysate; design: capturing and identification of kinases from L-363 cell lysate; endogenous in cells; host or cells: L-363 (DSMZ ACC49), treated with MG132 before harvest; conditions: 10 μM free compound, L-363 lysate
Procedure: as §1, §2

LYN = LYN (Homo sapiens, UniProt P07948); assay: Kinobeads competition binding, L-363 cell lysate; design: capturing and identification of kinases from L-363 cell lysate; endogenous in cells; host or cells: L-363 (DSMZ ACC49), treated with MG132 before harvest; conditions: 10 μM free compound, L-363 lysate
Procedure: as §1, §2

MAP2K6 = MAP2K6 (Homo sapiens, UniProt P52564); assay: Kinobeads competition binding, L-363 cell lysate; design: capturing and identification of kinases from L-363 cell lysate; endogenous in cells; host or cells: L-363 (DSMZ ACC49), treated with MG132 before harvest; conditions: 10 μM free compound, L-363 lysate
Procedure: as §1, §2

SYK = SYK (Homo sapiens, UniProt P43405); assay: Kinobeads competition binding, HL60 cell lysate; design: capturing and identification of kinases from mixed HeLa placenta lysates; endogenous in cells; conditions: 10 μM free compound
Procedure: To one aliquot of cell lysate 10 μM of the free compound (FIG. 3, CZC31326) was added and allowed to bind to proteins in the lysate. Then the affinity matrix with the immobilized compound (Example 1) was added to capture proteins that were not interacting with the previously added free compound. Beads were separated from the lysate and bead bound proteins were eluted in SDS sample buffer and subsequently separated by SDS-Polyacrylamide gel electrophoresis (FIG. 4). Suitable gel bands were cut out and subjected to in-gel proteolytic digestion with trypsin. The second lysate aliquot was processed identically, however no free compound was added (DMSO solvent control). Peptides originating from samples 1 and 2 were labeled with iTRAQ reagents (iTRAQ 114 and iTRAQ 117) and the combined samples were analyzed with a nano-flow liquid chromatography system coupled online to a tandem mass spectrometer (LC-MS/MS) experiment followed by iTRAQ reporter ion quantification in the MS/MS spectra (Ross et al., 2004. Mol. Cell. Proteomics 3(12):1154-1169). […] The iTRAQ reagents are a set of multiplexed, amine-specific, stable isotope reagents that can label peptides on amino groups in up to four different biological samples enabling simultaneous identification and quantitation of peptides. […]

Chain of RIPK2 (O43353 whole entry): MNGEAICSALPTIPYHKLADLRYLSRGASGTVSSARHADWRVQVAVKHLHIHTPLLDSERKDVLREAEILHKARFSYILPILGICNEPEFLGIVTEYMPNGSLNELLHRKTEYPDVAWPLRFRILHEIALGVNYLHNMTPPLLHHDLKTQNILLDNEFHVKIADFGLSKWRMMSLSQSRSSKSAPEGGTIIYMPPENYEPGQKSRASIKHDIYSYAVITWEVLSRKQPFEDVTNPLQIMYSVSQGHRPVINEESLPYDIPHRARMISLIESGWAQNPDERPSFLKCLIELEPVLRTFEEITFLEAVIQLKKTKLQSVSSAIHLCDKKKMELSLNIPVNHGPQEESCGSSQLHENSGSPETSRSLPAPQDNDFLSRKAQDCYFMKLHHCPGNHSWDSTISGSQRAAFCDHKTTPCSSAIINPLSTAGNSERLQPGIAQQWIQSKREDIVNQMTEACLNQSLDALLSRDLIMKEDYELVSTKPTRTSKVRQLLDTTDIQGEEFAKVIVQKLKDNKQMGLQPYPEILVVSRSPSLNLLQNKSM
Chain of MAP2K6 (P52564 whole entry): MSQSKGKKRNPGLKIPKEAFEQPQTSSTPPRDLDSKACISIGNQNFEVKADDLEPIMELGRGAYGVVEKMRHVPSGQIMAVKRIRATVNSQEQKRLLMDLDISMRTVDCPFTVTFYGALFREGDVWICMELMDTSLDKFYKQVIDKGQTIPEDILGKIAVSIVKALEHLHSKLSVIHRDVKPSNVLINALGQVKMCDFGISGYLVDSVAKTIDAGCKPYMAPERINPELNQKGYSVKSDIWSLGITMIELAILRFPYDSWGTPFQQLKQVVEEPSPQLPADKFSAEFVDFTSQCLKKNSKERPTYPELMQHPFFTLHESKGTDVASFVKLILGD
Chain of LYN (P07948 whole entry): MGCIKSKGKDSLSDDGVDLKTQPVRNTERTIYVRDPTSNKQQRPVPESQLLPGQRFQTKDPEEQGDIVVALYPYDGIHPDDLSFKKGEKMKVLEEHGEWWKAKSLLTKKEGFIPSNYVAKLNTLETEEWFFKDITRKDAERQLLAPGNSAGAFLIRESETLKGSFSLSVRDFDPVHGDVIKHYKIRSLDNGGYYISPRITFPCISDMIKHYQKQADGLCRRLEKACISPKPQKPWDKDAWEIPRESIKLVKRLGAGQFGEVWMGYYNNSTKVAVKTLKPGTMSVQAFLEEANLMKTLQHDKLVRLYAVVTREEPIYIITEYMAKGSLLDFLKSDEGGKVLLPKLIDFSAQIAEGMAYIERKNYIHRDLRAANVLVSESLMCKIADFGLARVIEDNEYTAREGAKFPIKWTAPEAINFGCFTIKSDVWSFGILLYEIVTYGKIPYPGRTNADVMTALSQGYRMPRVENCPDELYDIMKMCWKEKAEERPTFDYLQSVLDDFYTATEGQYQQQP
Chain of BCR (P11274 whole entry): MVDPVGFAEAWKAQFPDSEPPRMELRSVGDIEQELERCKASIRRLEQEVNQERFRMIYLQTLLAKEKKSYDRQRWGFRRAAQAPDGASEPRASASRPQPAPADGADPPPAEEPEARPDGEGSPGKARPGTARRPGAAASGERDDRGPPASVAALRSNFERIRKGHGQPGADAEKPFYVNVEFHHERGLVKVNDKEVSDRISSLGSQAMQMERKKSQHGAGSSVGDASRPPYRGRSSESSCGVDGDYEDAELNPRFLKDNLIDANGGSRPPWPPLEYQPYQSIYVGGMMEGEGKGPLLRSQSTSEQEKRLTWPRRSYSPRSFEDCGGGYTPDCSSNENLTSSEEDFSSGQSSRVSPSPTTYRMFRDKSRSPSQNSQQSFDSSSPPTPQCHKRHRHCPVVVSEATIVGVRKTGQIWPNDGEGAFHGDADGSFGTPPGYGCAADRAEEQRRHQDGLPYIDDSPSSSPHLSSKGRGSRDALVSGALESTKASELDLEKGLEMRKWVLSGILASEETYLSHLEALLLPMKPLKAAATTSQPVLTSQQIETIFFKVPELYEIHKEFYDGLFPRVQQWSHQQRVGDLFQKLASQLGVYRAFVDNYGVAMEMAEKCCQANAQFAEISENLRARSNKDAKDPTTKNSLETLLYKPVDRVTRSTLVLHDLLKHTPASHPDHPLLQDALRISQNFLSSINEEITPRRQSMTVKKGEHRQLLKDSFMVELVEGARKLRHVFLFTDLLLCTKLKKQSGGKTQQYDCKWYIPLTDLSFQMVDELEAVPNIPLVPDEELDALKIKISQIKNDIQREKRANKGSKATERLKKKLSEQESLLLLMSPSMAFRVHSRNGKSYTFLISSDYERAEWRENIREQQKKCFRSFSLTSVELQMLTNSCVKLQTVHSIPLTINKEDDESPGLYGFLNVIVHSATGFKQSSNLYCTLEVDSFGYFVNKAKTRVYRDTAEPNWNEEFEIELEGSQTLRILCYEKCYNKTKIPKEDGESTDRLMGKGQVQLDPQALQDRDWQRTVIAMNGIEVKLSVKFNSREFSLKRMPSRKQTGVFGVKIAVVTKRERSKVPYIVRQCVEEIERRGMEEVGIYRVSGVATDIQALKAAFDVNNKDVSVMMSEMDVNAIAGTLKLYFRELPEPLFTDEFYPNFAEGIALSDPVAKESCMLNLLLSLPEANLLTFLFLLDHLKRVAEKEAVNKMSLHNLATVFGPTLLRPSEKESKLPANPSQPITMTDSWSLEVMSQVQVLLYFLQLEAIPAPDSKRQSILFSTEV

Structure (SMILES): CS(=O)(=O)Nc1ccccc1Nc1nc(Nc2cccc(OCCN)c2)ncc1Cl [CZC31326, N-(2-(2-(3-(2-aminoethoxy)phenylamino)-5-chloropyrimidin-4-ylamino)phenyl)methanesulfonamide]
- inhibition at 10 µM (BCR): 93.6%
- inhibition at 10 µM (RIPK2): 95.5%
- inhibition at 10 µM (LYN): 94.5%
- inhibition at 10 µM (MAP2K6): 94.2%
- Competition % (SYK): 95.6%
